# Results taken from US20250034135A1, “ANTI-APOPTOTIC PROTEIN BCL-2 INHIBITOR, PHARMACEUTICAL COMPOSITION AND USES THEREOF” (HANGZHOU HEALZEN THERAPEUTICS CO., LTD., priority 2021, published 2025).
# Molecular target: BCL2 (Homo sapiens (Human), UniProt P10415)
# Assay: Molecular level activity test of anti-apoptotic protein BCL2 (HTRF, binding to Bim peptide)
# Conditions: HTRF, binding of BCL2 to Bim peptide; read-out: BCL2 nM (inhibitory activity, IC50)
# Procedure: The detection of the binding ability between anti-apoptotic protein BCL2 and pro-apoptotic protein Bim was performed using Homogeneous Time-Resolved Fluorescence technology. The reaction of this method occurred in a white shallow 384-well plate, with a total reaction volume of 10 μL. Specifically, it included 2 μL of the compound to be tested (2% DMSO), 4 μL His-tagged recombinant protein, and 4 μL Biotin-tagged BIM protein peptide. After 1 hour of reaction, 5 μL of each Anti-His and streptavidin-tagged XL665 antibody diluents diluted with a detection buffer were added. After incubating at room temperature for 4 hours, the values were read using the Envision multifunctional microplate reader to detect the effect of the compound to be tested on the binding ability of BCL2 to Bim protein peptides.
# Chain of BCL2 (P10415 whole entry): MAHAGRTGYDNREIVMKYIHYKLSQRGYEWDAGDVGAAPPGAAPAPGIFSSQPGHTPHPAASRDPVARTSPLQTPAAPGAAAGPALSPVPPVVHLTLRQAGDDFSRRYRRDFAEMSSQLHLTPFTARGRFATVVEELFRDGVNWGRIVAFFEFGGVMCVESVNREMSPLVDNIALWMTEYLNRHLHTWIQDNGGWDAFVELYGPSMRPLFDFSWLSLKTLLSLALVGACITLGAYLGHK
row,SMILES,IC50 [µM]
1,"CC(C)c1ccccc1[C@@H]1CCCN1C1CC2(CCN(c3cc(Oc4cnc5[nH]ccc5c4)c(C(=O)NS(=O)(=O)c4cc([N+](=O)[O-])c(NCC5(F)CCOCC5)c5c4OCO5)cc3F)CC2)C1 [compound 101, (S)-2-((1H-pyrrolo[2,3-b]pyrid-5-yl)oxy)-5-fluoro-N-((7-(((4-fluorotetrahydro-2H-pyran-4-yl)methyl)amino)-6-nitrobenzo[d][1,3]dioxocyclopent-4-yl)sulfonyl)-4-(2-(2-(2-isopropylphenyl)pyrrolidin-1-yl)-7-azaspiro[3.5]non-7-yl)benzamide]",< 0.01
2,"CC(C)c1ccccc1[C@@H]1CCCN1C1CC2(CCN(c3ccc(C(=O)NS(=O)(=O)c4cc([N+](=O)[O-])c(NCC5CCOCC5)c5c4OCO5)c(Oc4cnc5[nH]ccc5c4)c3)CC2)C1 [compound 160, (S)-2-((1H-pyrrolo[2,3-b]pyrid-5-yl)oxy)-4-(2-(2-(2-isopropylphenyl)pyrrolidin-1-yl)-7-azaspiro[3.5]non-7-yl)-N-((6-nitro-7-(((tetrahydro-2H-pyran-4-yl)methyl)amino)benzo[d][1,3]dioxocyclopent-4-yl)sulfonyl)benzamide]",< 0.01
3,"CC(C)c1ccccc1[C@@H]1CN(Cc2c(F)cccc2F)CCN1C1CC2(CCN(c3ccc(C(=O)NS(=O)(=O)c4cc([N+](=O)[O-])c(NCC5(F)CCOCC5)c5c4OCO5)c(Oc4cnc5[nH]ccc5c4)c3)CC2)C1 [compound 170, (R)-2-((1H-pyrrolo[2,3-b]pyrid-5-yl)oxy)-4-(2-(4-(2,6-difluorobenzyl)-2-(2-isopropylphenyl)piperazin-1-yl)-7-azaspiro[3.5]non-7-yl)-N-((7-(((4-fluorotetrahydro-2H-pyran-4-yl)methyl)amino)-6-nitrobenzo[d][1,3]dioxocyclopent-4-yl)sulfonyl)benzamide]",< 0.01
4,"CC(C)c1ccccc1[C@@H]1CCCN1C1CC2(CCN(c3cc(N4CCOc5nc6[nH]ccc6cc54)c(C(=O)NS(=O)(=O)c4cc([N+](=O)[O-])c(NCC5(F)CCN(C(C)C)CC5)c5[nH]cnc45)cc3F)CC2)C1 [compound 084, (S)-2-(2,3-dihydropyrrolo[3′,2′:5,6]pyridino[2,3-b][1,4]oxazin-1 (6H)-yl)-5-fluoro-N-((7-(((4-fluoro-1-isopropylpiperid-4-yl)methyl)amino)-6-nitro-1H-benzo[d]imidazol-4-yl)sulfonyl)-4-(2-(2-(2-isopropylphenyl)pyrrolidin-1-yl)-7-azaspiro[3.5]non-7-yl)benzamide]",< 0.01
5,"COc1ccc(CN2CCN(C3CC4(C3)CN(c3ccc(C(=O)NS(=O)(=O)c5cc([N+](=O)[O-])c(NCC6(F)CCN(C(C)C)CC6)c6[nH]cnc56)c(Oc5cnc6[nH]ccc6c5)c3)C4)C(c3ccccc3C(C)C)C2)cc1 (stereo not shown) [compound 046, 2-((1H-pyrrolo[2,3-b]pyrid-5-yl)oxy)-N-((7-(((4-fluoro-1-isopropylpiperid-4-yl)methyl)amino)-6-nitro-1H-benzo[d]imidazol-4-yl)sulfonyl)-4-(6-(2-(2-isopropylphenyl)-4-(4-methoxybenzyl)piperazin-1-yl)-2-azaspiro[3.3]hept-2-yl)benzamide]",< 0.01
6,"COc1ccc(CN2CCN(C3CC4(CCN(c5cc(Oc6cnc7[nH]ccc7c6)c(C(=O)NS(=O)(=O)c6cc([N+](=O)[O-])c(NC[C@H]7CC[C@](C)(O)CC7)c7c6CCO7)cc5F)CC4)C3)[C@H](c3ccccc3C(C)C)C2)cc1 [compound 119, 2-((1H-pyrrolo[2,3-b]pyrid-5-yl)oxy)-5-fluoro-N-((7-((((1r, 4r)-4-hydroxy-4-methylcyclohexyl)methyl)amino)-6-nitro-2,3-dihydrobenzofuran-4-yl)sulfonyl)-4-(2-((R)-2-(2-isopropylphenyl)-4-(4-methoxybenzyl)piperazin-1-yl)-7-azaspiro[3.5]non-7-yl)benzamide]",< 0.01
7,"CC(C)c1ccccc1C1CN(C2CCOCC2)CCN1C1CC2(CCN(c3ccc(C(=O)NS(=O)(=O)c4cc([N+](=O)[O-])c(NC[C@H]5CC[C@](C)(O)CC5)c5[nH]cnc45)c(Oc4cnc5[nH]ccc5c4)c3)CC2)C1 (stereo partly shown) [compound 043, 2-((1H-pyrrolo[2,3-b]pyrid-5-yl)oxy)-N-((7-((((1r,4r)-4-hydroxy-4-methylcyclohexyl)methyl)amino)-6-nitro-1H-benzo[d]imidazol-4-yl)sulfonyl)-4-(2-(2-(2-isopropylphenyl)-4-(tetrahydro-2H-pyran-4-yl)piperazin-1-yl)-7-azaspiro[3.5]non-7-yl)benzamide]",< 0.01
8,"CC(C)c1ccccc1C1CN(C2CCOCC2)CCN1C1CC2(C1)CN(c1cc(Oc3cnc4[nH]ccc4c3)c(C(=O)NS(=O)(=O)c3ccc(NC[C@H]4CC[C@](C)(O)CC4)c([N+](=O)[O-])c3)cn1)C2 (stereo partly shown) [compound 052, 4-((1H-pyrrolo[2,3-b]pyrid-5-yl)oxy)-N-((4-((((1r,4r)-4-hydroxy-4-methylcyclohexyl)methyl)amino)-3-nitrophenyl)sulfonyl)-6-(6-(2-(2-isopropylphenyl)-4-(tetrahydro-2H-pyran-4-yl)piperazin-1-yl)-2-azaspiro[3.3]hept-2-yl) nicotinamide]",< 0.01
9,"COc1ccc(CN2CCN(C3CC4(CCN(c5cc(Oc6cnc7[nH]ccc7c6)c(C(=O)NS(=O)(=O)c6cc([N+](=O)[O-])c(NC[C@H]7CC[C@](C)(O)CC7)c7ocnc67)cn5)CC4)C3)[C@H](c3ccccc3C(C)C)C2)cc1 [compound 138, 4-((1H-pyrrolo[2,3-b]pyrid-5-yl)oxy)-N-((7-((((1r, 4r)-4-hydroxy-4-methylcyclohexyl)methyl)amino)-6-nitrobenzo[d]oxazol-4-yl)sulfonyl)-6-(2-((R)-2-(2-isopropylphenyl)-4-(4-methoxybenzyl)piperazin-1-yl)-7-azaspiro[3.5]non-7-yl) nicotinamide]",< 0.01
10,"COc1cc(CN2CCN(C3CC4(CCN(c5cc(Oc6cnc7[nH]ccc7c6)c(C(=O)NS(=O)(=O)c6ccc(NCC7(F)CCOCC7)c([N+](=O)[O-])c6)cc5F)CC4)C3)[C@H](c3ccccc3C(C)C)C2)cc2cc(C)oc12 [compound 202, (R)-2-((1H-pyrrolo[2,3-b]pyrid-5-yl)oxy)-5-fluoro-N-((4-(((4-fluorotetrahydro-2H-pyran-4-yl)methyl)amino)-3-nitrophenyl)sulfonyl)-4-(2-(2-(2-isopropylphenyl)-4-((7-methoxy-2-methylbenzofuran-5-yl)methyl)piperazin-1-yl)-7-azaspiro[3.5]non-7-yl)benzamide]",< 0.01
11,"COc1ccc(CN2C[C@@H](c3ccccc3C(C)C)N(C3CC4(CCN(c5cc(Oc6cnc7[nH]ccc7c6)c(C(=O)NS(=O)(=O)c6ccc(NCC7(F)CCOCC7)c([N+](=O)[O-])c6)cc5F)CC4)C3)C[C@H]2C)cc1 [compound 155, 2-((1H-pyrrolo[2,3-b]pyrid-5-yl)oxy)-5-fluoro-N-((4-(((4-fluorotetrahydro-2H-pyran-4-yl)methyl)amino)-3-nitrophenyl)sulfonyl)-4-(2-((2R,5R)-2-(2-isopropylphenyl)-4-(4-methoxybenzyl)-5-methylpiperazin-1-yl)-7-azaspiro[3.5]non-7-yl)benzamide]",< 0.01
12,"COc1ccc(CN2CCN(C3CC4(CCN(c5cc(Oc6cnc7[nH]ccc7c6)c(C(=O)NS(=O)(=O)c6cc([N+](=O)[O-])c(NCC7(F)CCOCC7)c7ocnc67)cc5F)CC4)C3)[C@H](c3ccccc3C(C)C)C2)c(F)n1 [compound 131, (R)-2-((1H-pyrrolo[2,3-b]pyrid-5-yl)oxy)-5-fluoro-4-(2-(4-((2-fluoro-6-methoxypyrid-3-yl)methyl)-2-(2-isopropylphenyl)piperazin-1-yl)-7-azaspiro[3.5]non-7-yl)-N-((7-(((4-fluorotetrahydro-2H-pyran-4-yl)methyl)amino)-6-nitrobenzo[d]yl)sulfonyl)benzamide]",< 0.01
13,COc1ccc(CN2CCN(C3CC4(CCN(c5cc(Oc6cnc7[nH]ccc7c6)c(C(=O)NS(=O)(=O)c6cc([N+](=O)[O-])c(NC[C@H]7COCCO7)c7c6OCO7)cc5F)CC4)C3)[C@H](c3ccccc3C(C)C)C2)cc1 [compound 123],< 0.01
14,"COc1ccc(CN2CCN(C3CC4(CCN(c5cc(Oc6cnc7[nH]ccc7c6)c(C(=O)NS(=O)(=O)c6cc([N+](=O)[O-])c(NCC7CCOCC7)c7[nH]cnc67)cn5)CC4)C3)C(c3ccccc3C(C)C)C2)cc1 (stereo not shown) [compound 075, 4-((1H-pyrrolo[2,3-b]pyrid-5-yl)oxy)-6-(2-(2-(2-isopropylphenyl)-4-(4-methoxybenzyl)piperazin-1-yl)-7-azaspiro[3.5]non-7-yl)-N-((6-nitro-7-(((tetrahydro-2H-pyran-4-yl)methyl)amino)-1H benzo[d]imidazol-4-yl)sulfonyl) nicotinamide]",< 0.01
15,"CC(C)c1ccccc1[C@@H]1CCCN1C1CC2(CCN(c3ccc(C(=O)NS(=O)(=O)c4cc([N+](=O)[O-])c(NC[C@H]5CC[C@](C)(O)CC5)c5[nH]ccc45)c(Oc4cnc5[nH]ccc5c4)c3)CC2)C1 [compound 009, 2-((1H-pyrrolo[2,3-b]pyrid-5-yl)oxy)-N-((7-((((1r,4r)-4-hydroxy-4-methylcyclohexyl)methyl)amino)-6-nitro-1H-indol-4-yl)sulfonyl)-4-(2-((S)-2-(2-isopropylphenyl)pyrrolidin-1-yl)-7-azaspiro[3.5]non-7-yl)benzamide]",< 0.01
16,"CC(C)c1ccccc1[C@@H]1CCCN1C1CC2(CCN(c3cc(Oc4cnc5[nH]ccc5c4)c(C(=O)NS(=O)(=O)c4cc([N+](=O)[O-])c(NCC5(F)CCN(C(C)C)CC5)c5[nH]cnc45)cn3)CC2)C1 [compound 021, (S)-4-((1H-pyrrolo[2,3-b]pyrid-5-yl)oxy)-N-((7-(((4-fluoro-1-isopropylpiperid-4-yl)methyl)amino)-6-nitro-1H-benzo[d]imidazol-4-yl)sulfonyl)-6-(2-(2-(2-isopropylphenyl)pyrrolidin-1-yl)-7-azaspiro[3.5]non-7-yl) nicotinamide]",< 0.01
